According to article PMC9014415, “Repositioning of a Diaminothiazole Series Confirmed to Target the Cyclin-Dependent Kinase CRK12 for Use in the Treatment of African Animal Trypanosomiasis” (Journal of Medicinal Chemistry, 2022):
≈ marks a conversion by molar mass, not a printed value.

Columns and labels:
[1] = Solubility of compound 1 in PBS pH 7.4 (filtration, UHPLC); format: physicochemical; details: phosphate buffered saline; aqueous; PBS pH 7.4, 24 h mixing, UHPLC (method used for compound 1)
Method: software. All experiments were conducted with technical duplicates and at least three biological […]
1.4 Cytotoxicity assays – Rat skeletal myoblasts (L6)
The cytotoxicity of test compounds was evaluated using a rat skeletal myoblast (L6) cell line, as previously described3, but with minor modifications. Cells were grown in RPMI media supplemented with 10% (v/v) fetal calf serum. L6 cells at a seeding density of 2 x 10^4 cells/mL were incubated in microtiter plates overnight at 37 °C and 5 % CO2 until adherent. The following day, test compounds were added to the plates (3-fold serial dilutions), prior to incubation for 69 h. […] The plates were read using a SpectraMax (Gemini XS) fluorescence reader at an excitation wavelength of 536 nm and an emission wavelength of 588 nm. EC50 values were determined using SOFTmax Pro 5.2 analysis software. […]
The aqueous solubility of test compounds was measured using laser nephelometry. […] Triplicate aliquots were transferred to a flat-bottomed polystyrene plate which was immediately read on a NEPHELOstar nephelometer (BMG Lab Technologies). […]
Solubility of compound 1 was measured by a different method. […]
solution was then mixed for 24 h (rotary mixing, 900 rpm, 25°C) excluding light. […] The resulting filtrate was analysed for dissolved compound 1 using a truncated UHPLC methodology. […]

[2] = in vivo
[3] = Estimated EC99 used for PK/PD (parasite not stated); details: free blood level threshold
From the text: Given promising in vivo efficacy data in mice (Table 1), compound 1 was progressed into cattle pharmacokinetic studies, dosing both IV and IM (Table 2, Figure S2, and Table S4). […] This low bioavailability was likely a consequence of poor compound release from the injection site following IM administration in cattle due to the low solubility of compound 1, probably leading to compound accumulation and precipitation at the injection site.

For `CC(C)CS(=O)(=O)N[C@H]1CC[C@H](Nc2nc(N)c(C(=O)c3c(F)cccc3F)s2)CC1` [Compound 1, N-((trans)-4-((4-Amino-5-(2,6-difluorobenzoyl)thiazol-2-yl)amino)cyclohexyl)-2-methylpropane-1-sulfonamide], the solubility at 24 h [1] was 105 µM (≈ 49.6 µg/mL), the “Mouse oral MTD” value ([2]; po, 3 days) was >300 mg/kg and the “Tolerability, maximum tolerated dose study” value ([2]; mouse, sc) was “No tolerability issues”. The “estimated EC99” value [3] was 1.6 ng/mL.
